Measurements: patent publication US9820963B2, “Composition containing lignan compound as active ingredient for preventing or treating cancer” (KOREA RESEARCH INSTITUTE OF BIOSCIENCE AND BIOTECHNOLOGY, priority 2013, dated 2017)
Entries after “also recorded” stand apart in the source; their conditions may differ. One block for each compound: values may come before it.

Key:
[1] = tested on: ERKs/RSKs signaling pathway; assay: Western blot of EGF-stimulated cells, ERKs/RSKs signaling pathway; format: cell-based, mouse; settings: for ERK1/2 phosphorylation at Thr202/Tyr204: JB6 Cl41 cells
Experimental: The cultured JB6 Cl41 cells (1×10^6 cells) were aliquoted into a cell culture dish with a diameter of 100 mm and they were cultured overnight. Then, the cells were left for 24 hours in 0.1% FBS-MEM and pretreated with magnolin at concentrations of 15 μM, 30 μM, and 60 μM for 30 minutes, respectively, and after 30 minutes, co-treated with EGF and magnolin.
The proteins were extracted from the cultured JB6 Cl41 cells and the samples containing the proteins were analyzed by 8% to 10% SDS-PAGE, and transferred onto polyvinylidene difluoride (PVDF) membranes. The membranes were cultured in a blocking buffer containing 5% skim milk. Then, Western blot was performed using specific antibodies for phospho-MEK (MAPK (mitogen-activated protein kinase)/ERK kinase), total-MEK, phospho-ERK, total-ERK, phospho-RSK, total-RSK, phospho-Akt, total-Akt, phospho-p38 kinase, total-p38 kinase, phospho-JNK (c-Jun N-terminal kinase), and total-JNK (all the antibodies obtained from Cell Signaling Technology, Beverly, Mass., USA). In particular, β-actin (Santa Cruz, Calif., USA) was used as a control and the Western blot was visualized with an enhanced chemiluminescence detection system (Amersham Biosciences, Piscataway, N.J., USA) using the Chemidoc XRS imager system (Bio-Rad Laboratories, Hercules, Calif., USA).
To confirm whether the action of magnolin, which interrupts phosphorylation at Thr359/Ser363 of RSKs, was selective in MEKs/ERKs signaling pathways or not, the action was compared by conducting an experiment on the phosphorylation of ERKs and RSKs by treatment with PD98059, an MEK1/2 inhibitor. As a result, it was confirmed that PD98059 interrupts ERK1/2 phosphorylation at Thr202/Tyr204.

[2] = biological target: T1, ERK2 (Homo sapiens, UniProt P28482); assay: Magnolin competition analysis using ATP-agarose beads; format: binding; settings: increasing magnolin
Experimental: Then, to confirm whether magnolin was competitive with ATP or not, a magnolin competition analysis was performed using APT-agarose beads. As the result of the experiment, it was confirmed that an increase in magnolin decreased ERK2 that bind to ATP-agarose beads (FIG. 13E).

[3] = tested on: ATF1 and AP-1 transactivation activities; assay: ATF1 and AP-1 phosphorylation, nuclear localization and transactivation (Western blot, luciferase reporter); format: cell-based, mouse
Experimental: 1×10^6 of the cultured JB6 Cl41 cells were cultured in a cell culture dish with a diameter of 100 mm for overnight. The cells were starved and left for 24 hours, and then pretreated with magnolin at concentrations of 15 μM, 30 μM, and 60 μM of for 30 minutes, and then co-treated with […] of EGF and magnolin for 30 minutes. The proteins were extracted from the cells and visualized by Western blot.
On the other hand, the cells were co-transfected with pGAL4-ATF1-expressing plasmids and p5xGal4-luciferase reporter plasmids, and then cultured for 12 hours. The cells were pretreated with magnolin for 30 minutes, and co-treated with EGF and magnolin for 6 hours. Then, the cell culture was stopped and the activity of firefly luciferase was measured using the VIXTOR X3(PerkinElmer).

[4] = tested on: A549 cells having Ras^G12V; assay: Anchorage-independent colony growth in soft agar; format: cell-based, human; settings: 15, 30, 60 μM, 10 days
Experimental: Further, H226 cells (8×10^3 cells) having Ras-wt and A549 cells (8×10^3 cells) having Ras^G12V were cultured in 1 mL of 0.3% DMEM agar containing 10% FBS and 15 μM, 30 μM, and 60 μM of magnolin, respectively, maintained at 37° C., and cultured in a 5% CO2 bioreactor for 10 days. As the result of counting the number and size of the cell colonies using an ECLIPSE Ti inverted microscope and the NIS-Elements AR (V. 4.0) computer software program, it was observed that an anchorage-independent colony growth of A549 cells was inhibited by magnolin.

[5] = tested on: A549 human lung cancer cells harboring Ras^G12V; assay: Cell proliferation of lung cancer cells; format: cell-based; settings: 15, 30, 60 μM, 96 hours
Experimental: H226 human lung cancer cells (2×10^3 cells) harboring Ras-wt and A549 human lung cancer cells (2×10^3 cells) harboring Ras^G12V, mutant activating factor, were aliquoted into 96-well plates, respectively, and treated with magnolin at concentrations of 15 μM, 30 μM, and 60 μM. The cells were cultured for 96 hours at 24 hour intervals and the cell proliferation was measured.

[6] = tested on: NIH3T3 cells expressing Ras^G12V; assay: Cell proliferation and anchorage-independent colony growth of NIH3T3 cells; format: cell-based
Description: In order to confirm the experimental results more precisely, NIH3T3 cells stably expressing mock or Ras^G12V were used to perform an additional experiment in the same manner as described above.

[7] = tested on: JB6 Cl41 cells; assay: EGF-induced cell cycle progression; format: cell-based, mouse; settings: 60 μM or higher, 1 ng/mL EGF, 12 hours
Experimental: Then, the cells were pretreated with magnolin to final concentrations of 15 μM, 30 μM, and 60 μM, respectively, for 30 minutes. Then, under the presence of magnolin, the cells were stimulated with 1 ng/mL of EGF for 12 hours.

[8] = biological target: T1, ERK2; assay: In vitro kinase analysis with active ERK2 and His-RSK2-328-740; format: biochemical
Experimental: (§1) A truncated RSK2 protein containing the amino acid at position 328 to the amino acid at position 740 (His-RSK-328-740) was purified using Ni-NTA agarose beads (Qiagen Korea Ltd., Seoul, Korea) (Left panel on FIG. 13A) and an in vitro-kinase analysis was performed using active ERK and His-RSK2-328-740 proteins. Specifically, in the in vitro-kinase analysis, 20 μL of the purified sample was treated with 20 ng of active ERK1 or ERK2, 100 ng of RSK2, and 100 μM of cold-ATP, and 3.75 μM, 7.5 μM, 15 μM, 30 μM, and 60 μM of magnolin, respectively. Then, the kinase reaction was performed for 30 minutes at 30° C. The reaction was stopped by adding 6×SDS-sample buffer followed by boiling. Upon termination of the reaction, the resultant was visualized by Western blot.
(§2) As the result of the computational docking, it was observed that magnolin forms hydrogen bonds with Lys168 of ERK1 (Left panel on FIG. 13B) and Met108 and Lys54 of ERK2 (Right panel on FIG. 13B), respectively. Further, it was confirmed that magnolin in the active pocket of ERK1 or ERK2 was completely different in molecular structure and binding angle. The docking scores of magnolin at the active pockets of ERK1 and ERK2 were −0.7 and −6.68, respectively. Further, to measure the IC50 value on the activity of ERK1 or ERK2, the in vitro-kinase analysis was performed.

[9] = tested on: Mouse skin epidermal JB6 Cl41 cells; assay: MTS assay, inhibitory effect of magnolin on cell proliferation; format: cell-based; settings: up to 96 hours, read-out: inhibition of cell proliferation compared with DMSO control
Experimental: Mouse skin epidermal JB6 Cl41 cells were cultured in Dulbeco's Modified Eagle's Medium (DMEM) containing 10% FBS at 37° C. in a 5% CO2 bioreactor. The cells were subcultured at 80% to 90% confluence and the medium was changed every 2 to 3 days.
The cultured JB6 Cl41 cells (1×10^3 cells) were aliquoted into 96-well plates containing 5% FBS-MEM and cultured for 2 hours at 37° C. in a 5% CO2 bioreactor. Then, each well was added with 20 μL of an aqueous solution of the MTS-based Cell Titer 96, and then, further cultured for 1 hour at 37° C. in a 5% CO2 bioreactor. 25 μL of 10% sodium dodeceyl sulfate (SDS) solution was added into each of the wells to stop the reaction. The absorbance at 492 nm was measured to measure the growth of the cells at 0 hour.
While measuring the absorbance at 0 hour, the cells were simultaneously treated with the magnolin samples to final concentrations of 15 μM, 30 μM, and 60 μM, respectively, prepared in Example 5. The cells were cultured for 96 hours while measuring the absorbance at 24 hour intervals. In the experiment, the cell treated with DMSO alone was set as a control.

[10] = biological target: ERK1 (Homo sapiens, UniProt P27361); assay: In vitro kinase analysis with active ERK1 and His-RSK2-328-740; format: biochemical
Experimental: as §1, §2

[11] = tested on: JB6 Cl41 cells; assay: Cell cycle distribution by PI flow cytometry, normal culture conditions; format: cell-based, mouse; settings: for distribution in G1/G0 phase: 12 hours (control about 42%)
Experimental: To observe the cell cycle of the cells under normal cell culture conditions, JB6 Cl41 cells were cultured in a complete cell culture medium for 12 hours and treated with magnolin at final concentrations of 30 μM and 60 μM, respectively. After 12 hours, the cells were treated with trypsin, fixed, and treated with 20 μg/mL of PI at 4° C. for 15 minutes. Then, the cell cycle distribution was analyzed using the flow cytometry (BD FACS Calibur™ Flow cytometery, Franklin Lakes, N.J., USA).

[12] = tested on: JB6 Cl41 cells; assay: Anchorage-independent cell transformation assay, EGF-induced; format: cell-based; settings: Mus musculus, JB6 Cl41, 336 h, 10 ng/mL EGF, 14 days
Experimental: JB6 Cl41 cells (8×10^3 cells) present in 1 mL of 0.3% Basal Medium Eagle (BME) agar containing 10% FBS and magnolin in concentrations of 15 μM, 30 μM, and 60 μM, respectively, were exposed to 10 ng/mL of EGF, maintained at 37° C., and cultured in a 5% CO2 bioreactor for 14 days. Then, the number and size of the colonies were counted using an ECLIPSE Ti inverted microscope and the NIS-Elements AR (V. 4.0) computer software program (NIKON Instruments Korea, Seoul, Korea).

[13] = tested on: JB6 Cl41 cells; assay: Cytotoxicity of magnolin; format: cell-based, mouse; settings: 100 μM or higher, 48 hours
Experimental: Additionally, to examine the cytotoxicity of magnolin, the cultured cells (2×10^4 cells) were aliquoted into 96-well plates containing 5% FBS-MEM and cultured overnight. Then, the cells were treated with the magnolin samples to final concentrations of 15 μM, 30 μM, 60 μM, and 100 μM respectively, prepared in the Example 5. The cells were cultured for 48 hours while measuring the absorbance at 24 hour intervals. In the experiment, the cell treated with DMSO alone was set as a control.

[14] = co-treated with EGF and magnolin

T1 sequence (P28482 whole entry): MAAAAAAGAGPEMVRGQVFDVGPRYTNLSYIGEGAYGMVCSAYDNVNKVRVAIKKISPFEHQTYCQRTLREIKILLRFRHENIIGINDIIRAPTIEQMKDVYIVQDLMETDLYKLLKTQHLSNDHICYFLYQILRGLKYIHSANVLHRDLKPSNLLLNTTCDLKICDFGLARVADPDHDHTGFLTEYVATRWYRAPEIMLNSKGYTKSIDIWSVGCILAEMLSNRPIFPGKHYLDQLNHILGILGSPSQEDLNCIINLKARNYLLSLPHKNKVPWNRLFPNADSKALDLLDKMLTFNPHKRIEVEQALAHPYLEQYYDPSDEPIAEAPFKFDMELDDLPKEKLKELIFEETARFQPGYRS
ERK1, sequence (P27361 whole entry, species assumed): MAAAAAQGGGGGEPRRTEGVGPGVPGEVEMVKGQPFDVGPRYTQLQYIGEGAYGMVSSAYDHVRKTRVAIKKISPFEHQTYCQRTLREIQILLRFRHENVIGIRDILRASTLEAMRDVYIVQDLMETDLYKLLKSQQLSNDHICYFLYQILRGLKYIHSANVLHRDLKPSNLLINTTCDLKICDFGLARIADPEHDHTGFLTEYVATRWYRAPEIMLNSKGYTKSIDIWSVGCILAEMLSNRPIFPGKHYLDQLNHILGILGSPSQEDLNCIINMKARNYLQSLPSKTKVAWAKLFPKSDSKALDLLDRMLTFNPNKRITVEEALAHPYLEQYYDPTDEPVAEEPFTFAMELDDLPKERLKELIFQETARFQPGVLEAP

Compound: COc1cccc(-c2cc(=O)c3ccccc3o2)c1N [PD98059, reference compound]
phosphorylation at Thr359/Ser363 of RSKs ([1]; EGF-stimulated JB6 Cl41 cells): inhibited
ERK1/2 phosphorylation at Thr202/Tyr204 [1]: interrupts

ERK2 binding to ATP-agarose beads [2]: decreased
IC50 [8]: 16.5 nM
inhibition of ERK1-mediated RSK2 phosphorylation at Thr359/Ser363 and Thr577 ([10]; in vitro kinase reaction, 100 μM ATP, magnolin 3.75 to 60 μM): about 90%
IC50 ([10]; in vitro-kinase analysis): ~87 nM
Compound: COc1ccc([C@H]2OC[C@H]3[C@@H]2CO[C@@H]3c2cc(OC)c(OC)c(OC)c2)cc1OC [magnolin]
phosphorylation at Thr359/Ser363 of RSKs ([1]; EGF-stimulated JB6 Cl41 cells): interrupting phosphorylation; also recorded: inhibited
phosphorylations of MEK, Akt, p38 kinase, and JNKs ([1]; EGF-stimulated JB6 Cl41 cells): not to be involved
ERK1/2 phosphorylation at Thr202/Tyr204 [1]: does not interrupt the phosphorylation
EGF-induced ATF1 phosphorylation at Ser63 ([3]; JB6 Cl41 cells, Western blot): inhibited
AP-1 transactivation activity [3, 14]: inhibited
EGF-induced c-Jun phosphorylation at Ser63 and Ser73 [3, 14]: inhibited
nuclear phospho-c-Jun increased by EGF stimulation [3, 14]: decreased
nuclear phospho-ATF1 protein level induced by EGF ([3]; co-treated with EGF and magnolin, Western blot and immunocytofluorescence): decreased
ATF1 transactivation activity increased by EGF stimulation ([3]; co-treated with EGF and magnolin, luciferase reporter): inhibited
anchorage-independent colony growth of A549 cells [4]: inhibited
inhibition of cell proliferation in A549 cells compared with H226 cells [5]: more significantly
anchorage-independent growth [6]: inhibited
inhibition of cell proliferation compared with NIH3T3 cells expressing mock [6]: more sensitive
effect of EGF on cell cycle [7]: almost completely inhibited
inhibition at 30 µM ([9]; 30 μM): ~40%
inhibition at 60 µM ([9]; 60 μM): ~70%
distribution in G2/M cell cycle phase compared to control ([11]; 30 μM and 60 μM, 12 hours): only a very small increase
distribution in G1/G0 phase ([11]; 30 μM): about 55%
distribution in G1/G0 phase ([11]; 60 μM): about 60%
inhibition at 30 µM ([12]; 30 μM): ~40%
inhibition at 60 µM ([12]; 60 μM): ~75%
cytotoxicity [13]: no cytotoxicity was observed
